In article PMC8555546, “Conductance stability and Na+ interaction with Shab K+ channels under low K+ conditions” (Channels, 2021) one finds Kd data, which are given here for 1 molecule.

For this experiment, the target named is T1, Shab K+ channel (dShab 11) (Drosophila melanogaster, UniProt P17970).
T1 construct: Shab cDNA (dShab 11) by recombinant baculovirus in Sf9 insect cells; homotetramer
T1 sequence (P17970 1-1015): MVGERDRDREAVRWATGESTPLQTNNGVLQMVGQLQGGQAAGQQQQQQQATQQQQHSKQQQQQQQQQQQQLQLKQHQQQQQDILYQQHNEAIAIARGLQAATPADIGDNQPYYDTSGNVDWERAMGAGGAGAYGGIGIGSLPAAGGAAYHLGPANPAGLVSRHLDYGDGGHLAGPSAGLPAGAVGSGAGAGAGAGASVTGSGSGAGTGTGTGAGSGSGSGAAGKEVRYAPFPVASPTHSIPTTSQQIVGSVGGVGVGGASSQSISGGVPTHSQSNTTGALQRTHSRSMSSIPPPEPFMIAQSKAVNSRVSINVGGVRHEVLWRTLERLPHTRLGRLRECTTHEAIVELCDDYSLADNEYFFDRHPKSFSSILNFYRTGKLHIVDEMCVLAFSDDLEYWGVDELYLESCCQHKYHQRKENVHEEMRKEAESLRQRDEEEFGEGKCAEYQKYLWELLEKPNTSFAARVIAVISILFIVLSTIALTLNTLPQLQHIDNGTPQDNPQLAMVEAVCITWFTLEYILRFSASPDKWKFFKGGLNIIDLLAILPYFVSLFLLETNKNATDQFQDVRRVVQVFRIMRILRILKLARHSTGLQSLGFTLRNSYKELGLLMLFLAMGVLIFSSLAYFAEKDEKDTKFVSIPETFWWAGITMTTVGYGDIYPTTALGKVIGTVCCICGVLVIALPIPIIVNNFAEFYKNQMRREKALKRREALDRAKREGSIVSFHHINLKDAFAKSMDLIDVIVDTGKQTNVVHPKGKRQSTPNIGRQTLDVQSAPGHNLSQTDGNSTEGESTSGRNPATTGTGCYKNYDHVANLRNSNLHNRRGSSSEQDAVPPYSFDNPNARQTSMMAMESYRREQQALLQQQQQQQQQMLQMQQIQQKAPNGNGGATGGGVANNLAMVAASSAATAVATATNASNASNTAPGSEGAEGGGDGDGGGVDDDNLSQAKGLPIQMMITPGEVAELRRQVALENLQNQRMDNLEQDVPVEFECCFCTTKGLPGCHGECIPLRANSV
The experiment in a line: whole-cell patch clamp, block of K+ current, Michaelis-Menten fit. Format: cell-based.

Molecule `CC[N+](CC)(CC)CC` [TEA] had a Kd of 10.8 mM. This counts as millimolar.

In general, Kd refers to the constant that tells how readily two partners part at equilibrium.
